Measurements reported in the supplement of paper PMC10331698.
± gives the standard deviation of the averaged measurements.

Legend:
Experiment in all cases: LOEC (log10 uM (lowest observed effect concentration))
[1] = compound: NS(=O)(=O)C(F)(F)C(F)(F)C(F)(F)C(F)(F)C(F)(F)C(F)(F)C(F)(F)C(F)(F)F [Perfluorooctanesulfonamide]
Method: (§1)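 BioMAP Diversity Plus panel in human primary cell co-cultures, 4 concentrations in duplicate blinded samples. Responses are log10 fold change versus DMSO control, processed with tcpl v2.1.0. A hit is called when responses at any concentration exceed the cutoff (the larger of 3*bmad or log10(1.2)); the lowest observed effect concentration (modl_ga, log10 uM) is reported for hits.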

[2] = compound: O=C(O)C(F)(F)C(F)(F)C(F)(F)C(F)(F)C(F)(F)C(F)(F)C(F)(F)C(F)(F)C(F)(F)C(F)(F)F [Perfluoroundecanoic acid]
Method: as §1

[3] = compound: O=C(O)C(F)(F)OC(F)(F)C(F)(F)OC(F)(F)C(F)(F)OC(F)(F)C(F)(F)C(F)(F)C(F)(F)F [Perfluoro-3,6,9-trioxatridecanoic acid]
Method: as §1

[4] = compound: CCNS(=O)(=O)C(F)(F)C(F)(F)C(F)(F)C(F)(F)C(F)(F)C(F)(F)C(F)(F)C(F)(F)F [N-Ethylperfluorooctanesulfonamide]
Method: as §1

[5] = compound: O=C(O)C(F)(F)C(F)(F)C(F)(F)C(F)(F)C(F)(F)C(F)(F)C(F)(F)C(F)(F)F [Perfluorononanoic acid]
Method: as §1

[6] = compound: O=C(O)C=C(C(F)(F)F)C(F)(F)F [3,3-Bis(trifluoromethyl)-2-propenoic acid]
Method: as §1

[7] = compound: OCC(F)(F)OC(F)(F)C(F)(F)OC(F)(F)C(F)(F)OC(F)(F)CO [1H,1H,11H,11H-Perfluorotetraethylene glycol]
Method: as §1

Row | Test System | LOEC (log10 uM) [1] | LOEC (log10 uM) [2] | LOEC (log10 uM) [3] | LOEC (log10 uM) [4] | LOEC (log10 uM) [5] | LOEC (log10 uM) [6] | LOEC (log10 uM) [7]
1 | KF3CT IP10 down | 1.3 | 0.845 | 0.845 | 1.54 ± 0.34 | 1.78 | – | –
2 | KF3CT MCP1 down | 1.78 | 0.845 | 0.845 | – | 0.801 ± 0.71 | – | –
3 | KF3CT MIG down | 1.78 | 0.845 | 1.3 | – | – | – | –
4 | KF3CT MMP9 down | 1.3 | 0.301 | 0.845 | 1.3 | 1.31 ± 0.66 | – | –
5 | KF3CT PAI1 down | 1.54 ± 0.34 | 0.301 | 0.845 | 1.54 ± 0.34 | 1.78 | – | –
6 | KF3CT SRB down | 1.78 | 0.845 | 1.3 | – | – | – | –
7 | KF3CT TIMP2 down | 1.78 | 0.845 | 0.845 | 1.78 | – | – | –
8 | KF3CT uPA down | 1.3 | 0.845 | 1.3 | 1.78 | – | – | –
9 | LPS CD40 down | 1.78 | – | 1.78 | 1.78 | 1.78 | 1.78 | –
10 | LPS CD69 down | 1.3 | – | 1.78 | – | 1.78 | – | –
11 | LPS Eselectin down | 1.78 | – | 1.78 | – | – | – | –
12 | LPS IL8 down | 1.78 | – | 1.07 ± 0.32 | 1.78 | – | – | –
13 | LPS MCP1 down | 1.78 | – | 1.54 ± 0.34 | 1.78 | 1.78 | – | –
14 | LPS MCSF down | 1.78 | – | 1.78 | – | – | 1.31 ± 0.66 | –
15 | LPS SRB down | 1.78 | – | 1.78 | 1.78 | 1.78 | – | –
16 | LPS TissueFactor down | 1.78 | – | 1.78 | – | – | – | –
17 | LPS TissueFactor up | – | – | – | 1.78 | – | – | –
18 | LPS VCAM1 down | 1.78 | – | 1.78 | – | 1.78 | 0.573 ± 0.39 | –
19 | MyoF ACTA1 down | 1.3 | 0.845 | 0.845 | 1.78 | 1.78 | – | 1.78
20 | MyoF CollagenI down | 1.3 | 0.301 | 0.845 | 1.78 | 1.54 ± 0.34 | – | –
21 | MyoF CollagenIII down | 1.3 | 0.301 | 0.845 | 1.78 | 1.78 | – | –
22 | MyoF CollagenIV up | – | – | – | – | 1.3 | – | –
23 | MyoF Decorin down | – | 0.845 | 1.3 | 1.78 | – | – | –
24 | MyoF IL8 down | 1.78 | 0.845 | 1.78 | 1.78 | – | – | –
25 | MyoF PAI1 down | 1.78 | 0.845 | 1.07 ± 0.32 | 1.78 | – | – | –
26 | MyoF SRB down | 1.3 | 0.845 | 1.07 ± 0.32 | 1.78 | – | – | –
27 | MyoF TIMP1 down | 1.78 | 0.573 ± 0.39 | 1.3 | 1.3 | – | – | –

Row | Test System | LOEC (log10 uM) [1] | LOEC (log10 uM) [2] | LOEC (log10 uM) [3] | LOEC (log10 uM) [4] | LOEC (log10 uM) [5] | LOEC (log10 uM) [6] | LOEC (log10 uM) [7]
28 | MyoF VCAM1 down | 1.3 | 0.845 | 0.845 | 1.3 | 1.78 | 1.3 | –
29 | MyoF bFGF down | 1.78 | 0.845 | 1.07 ± 0.32 | 1.78 | – | – | –
30 | SAg CD38 down | 1.54 ± 0.34 | – | 1.78 | 1.78 | 1.78 | – | –
31 | SAg CD40 down | 1.3 | 0.845 | 1.78 | 1.3 | 1.78 | – | 1.78
32 | SAg CD69 down | 1.54 ± 0.34 | 0.845 | 1.54 ± 0.34 | 1.3 | 1.78 | 1.78 | –
33 | SAg MCP1 down | 1.78 | – | 1.78 | 1.78 | 1.78 | – | –
34 | SAg MIG down | 1.78 | – | 1.78 | – | – | – | –
35 | SAg PBMCCytotoxicity down | 1.78 | – | 1.78 | – | – | – | –
36 | SAg Proliferation down | 1.78 | – | 1.78 | 1.78 | 1.78 | 1.78 | –
37 | SAg SRB down | 1.78 | – | 1.78 | 1.78 | 1.78 | – | –
38 | hDFCGF CollagenI down | – | 0.845 | 1.54 ± 0.34 | 1.78 | – | – | –
39 | hDFCGF CollagenIII down | 1.3 | 0.845 | 0.845 | 0.845 | – | – | –
40 | hDFCGF EGFR down | – | 0.301 | – | – | – | – | –
41 | hDFCGF ICAM1 down | 1.3 | 0.845 | 1.07 ± 0.32 | 1.54 ± 0.34 | 1.78 | – | –
42 | hDFCGF IL8 down | 1.3 | 0.845 | 1.3 | 1.78 | – | – | –
43 | hDFCGF IP10 down | 0.573 ± 0.39 | 0.301 | 0.845 | 0.845 | 1.78 | – | 1.3
44 | hDFCGF ITAC down | 0.845 | 0.845 | 0.845 | 0.845 | 1.78 | – | 1.3
45 | hDFCGF MCP1 down | 1.3 | 0.573 ± 0.39 | 0.845 | 1.78 | – | – | 1.54 ± 0.34
46 | hDFCGF MCSF down | 1.3 | 0.845 | 0.845 | 1.3 | – | – | 1.54 ± 0.34
47 | hDFCGF MIG down | 0.573 ± 0.39 | 0.845 | 0.845 | 1.3 | 1.54 ± 0.34 | – | 0.845
48 | hDFCGF MMP1 up | – | – | – | – | – | – | 1.54 ± 0.34
49 | hDFCGF PAI1 down | 1.3 | 0.845 | 0.845 | 1.54 ± 0.34 | – | – | –
50 | hDFCGF SRB down | 1.78 | 0.845 | 0.845 | 1.54 ± 0.34 | – | – | –
51 | hDFCGF TIMP1 down | – | 0.845 | 1.07 ± 0.32 | 1.78 | – | – | –
52 | hDFCGF TIMP1 up | 1.78 | – | – | – | – | – | –
53 | hDFCGF TIMP2 down | – | 0.845 | 0.845 | 1.54 ± 0.34 | – | – | –
